# Laboratory results as given in US20240299486A1, “ADDRESSING INJECTION SITE REACTIONS ASSOCIATED WITH THE ADMINISTRATION OF ELAMIPRETIDE” (STEALTH BIOTHERAPEUTICS INC., priority 2022, published 2024).
# pEC50: −log10 of the molar value.
# Legend:
# [1] = target: T1, MRGPRX2 receptor (Homo sapiens, UniProt Q96LB1); assay: Fluo-4 calcium assay in MRGPRX2 expressing Chem-1 cells; type: cell-based; details: Chem-1 cells, Fluo-4
# T1 construct: host or cells: Chem-1 cells (G418-selected)
# T1 sequence (Q96LB1 1-330): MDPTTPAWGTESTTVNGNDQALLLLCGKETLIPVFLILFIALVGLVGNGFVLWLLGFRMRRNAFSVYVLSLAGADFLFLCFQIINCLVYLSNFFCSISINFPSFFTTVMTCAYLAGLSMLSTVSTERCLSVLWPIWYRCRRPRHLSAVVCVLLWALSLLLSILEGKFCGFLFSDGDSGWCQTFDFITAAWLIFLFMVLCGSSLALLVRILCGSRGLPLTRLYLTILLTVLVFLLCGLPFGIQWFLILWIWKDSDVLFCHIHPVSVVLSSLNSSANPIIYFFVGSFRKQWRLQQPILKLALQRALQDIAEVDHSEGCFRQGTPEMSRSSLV
# [2] = tested on: rats; details: subcutaneous administration, long term toxicology studies
# [3] = tested on: healthy subjects; assay: Phase 1 crossover study: clinically assessed injection site reactions
# Experimental: (§1) • This Phase 1, open-label, 6-arm crossover study included 10 healthy subjects ≥18 and ≤65 years of age. • All subjects received 60 mg of SQ elamipretide to alternating quadrants of the abdomen on each of 6 occasions (FIG. 3), with or without the interventions listed in Table 2. • For each treatment arm, ISR clinical and self-assessments were performed pre-elamipretide administration and at 0.5, 1, 2, 4, 6, 12, 24, and 48 hours after each elamipretide dose. • Blood samples for plasma concentrations of elamipretide and its metabolites were also collected pre-dose and at 0.25, 0.5, 1, 2, 4, and 6 hours post-elamipretide dose. • Primary endpoints consisted of comparisons of the grading from the clinical assessments and the self-assessments of each ISR parameter following administration of elamipretide with each separate intervention versus that of elamipretide alone. • Secondary endpoints consisted of comparison of various pharmacokinetic (PK) parameters and adverse events following administration of elamipretide with each separate intervention versus that of elamipretide alone.
# After the screening period (up to 28 days) in this phase 1, open-label, 4-week, 6-part, crossover study, all eligible subjects received 60 mg (0.75 mL) of SC elamipretide to alternating quadrants of the abdomen on each of 6 occasions, with or without potential ISR interventions. The first treatment arm (Arm 1) commenced on Day 1 with administration of elamipretide only, followed by the remaining treatment arms (Arms 2-6) with the following potential mitigations: mometasone furoate, 0.1% ointment, applied once under a hydrocolloid occlusive dressing (DuoDERM Extra Thin) 7 days prior to elamipretide administration (Arm 2); ice application at the elamipretide injection site 5 minutes pre- and post-drug administration (Arm 3); tacrolimus 0.1% ointment applied 15 minutes pre-drug dosing (Arm 4); doxepin 5% cream applied 15 minutes pre-elamipretide administration (Arm 5); and diphenhydramine 50 mg orally taken 2 hours prior to administration (Arm 6). For each treatment arm, blood samples for plasma concentrations of elamipretide and its metabolites were collected pre-dose and at 0.25, 0.5, 1, 2, 4, and 6 hours post-elamipretide dose. Vital signs were recorded pre-dose and at 0.5 and 6 hours post-elamipretide administration. ISR clinical and self-assessments were performed pre-elamipretide administration and at 0.5, 1, 2, 4, 6, 12, 24, and 48 hours after each elamipretide dose. Injection sites were photographed at 0.5, 1, 2, 4, and 12 hours post-elamipretide dose.
# The primary endpoints of this study were comprised of the following efficacy measures: clinical assessments and subject self-assessments. Specifically, the primary endpoints consisted of comparisons of the grading of each ISR parameter following administration of elamipretide with each separate intervention versus the grading of each ISR parameter following administration of elamipretide alone. For clinical assessments, the clinical staff used a standard procedure adapted from the Division of Aids Table for Grading the Severity of Adult and Pediatric Adverse Events to score pain, erythema, induration, and pruritus using a 4-point scale based on severity (0=None, 1=Mild, 2=Moderate, 3=Severe, 4=Potentially Life Threatening). The self-assessments were based on a questionnaire to determine how bothered the patient was following each injection of elamipretide and included the following parameters: pain, burning sensation, cold sensation, itching, redness, swelling, and bruising.
# All statistical analyses were performed using SAS GRID Linux/SAS Studio (Version 9.4, or higher). PK parameters for elamipretide and its metabolites, M1 and M2, were summarized using descriptive statistics.
# [4] = tested on: untransfected cells; assay: Fluo-4 calcium assay in untransfected HEK293 cells; type: cell-based, human; details: untransfected cells (data not shown)
# [5] = tested on: control (non-MRGPRX2 expressing) Chem-1 cells; details: parent Chem-1 cells, Fluo-4
# Experimental: MRGPRX2 expressing and control (non-MRGPRX2 expressing) Chem-1 cells lines were obtained from Discovery Services, EuroFins. Cells were cultured in Dulbecco's Modified Eagle Medium (DMEM) high glucose medium (4.5 g/L) with 10% fetal bovine serum (FBS), non-essential amino acids, and N-2-hydroxyethylpiperazine-N′-2-ethanesulfonic acid (HEPES) buffer (pH 7.0-7.6). Geneticin (G418) was used for selection of MRGPRX2-expressing Chem-1 cells. Cells were maintained at 37° C. at 5% CO2. Cells were seeded to a glass bottom 96-well plates at a density of 50,000 per well (Cellvis). Cells were loaded with Fluo-4 AM for 30 minutes at 37° C. at a concentration of 2.5 μM. Cells were washed once with Dulbecco's phosphate buffered saline (DPBS). Cells were rested at room temperature for 30 minutes before use and washed with DPBS. Cells were resuspended in 50 μl phosphate buffered saline (PBS) with calcium and magnesium. […] Plates were read immediately with a Biotek plate reader. Readings were taken every 6 seconds for 2 minutes.
# [6] = Phase 1 crossover study: pharmacokinetics of elamipretide and metabolites M1, M2; details: human, in vivo, 60 mg
# Experimental: as §1
# After the screening period (up to 28 days) in this phase 1, open-label, 4-week, 6-part, crossover study, all eligible subjects received 60 mg (0.75 mL) of SC elamipretide to alternating quadrants of the abdomen on each of 6 occasions, with or without potential ISR interventions. […]
# [7] = tested on: non-human primates; details: long term toxicology studies
# [8] = target: human MRGPRX2 (Homo sapiens, UniProt Q96LB1); assay: cell-based
# Experimental: A clonal HEK293 cell line stably expressing human MRGPRX2 and Galpha15 was used for the assay, which was performed using a fluorescent plate reader. Cells were plated at 40,000 cells per well in a glass-bottom 96 well plate 20 hours before the assay. Cells were loaded with N-[4-[6-[(Acetyloxy)methoxy]-2,7-difluoro-3-oxo-3H-xanthen-9-yl]-2-[2-[2-[bis[2-[(acetyloxy)methoxy]-2-oxoethyl]amino]-5-methylphenoxy]ethoxy]phenyl]-N-[2-[(acetyloxy)methoxy]-2-oxoethyl]glycine (acetyloxy)methyl ester (Fluo-4 AM) for 45 minutes at 37° C. and allowed to rest for 30 minutes before use. Baseline fluorescence was calculated as the average of a 30 second read, with data points taken at 5 second intervals. Response was defined as the maximum signal within 90 seconds after addition of elamipretide, subtracted by the baseline fluorescence signal. Concentrations were tested in duplicate and the assay was run 6 times. The curve was calculated as a four-parameter non-linear fit with variable slope. Traces were obtained using the same cell line and same Fluo-4 AM loading protocol but were imaged using a fluorescence microscope using a standard fluorescein isothiocyanate (FITC) filter. Fluorescence for different cells was calculated using region of interest selections.
# A calcium-based readout of receptor activity was used to determine whether elamipretide activates human MRGPRX2 and its mouse ortholog Mrgprb2. This assay is known to be widely used in drug screening and utilized a cell line stably transfected with the receptor along with Galpha15, a promiscuous G protein that couples to the receptor and induced an increase in intracellular calcium when the receptor was activated. Thus, an increase in calcium levels reflected receptor activation. Calcium levels were detected by imaging Fluo-4 (from Fluo-4 AM), a dye that increases in fluorescence when bound to calcium.
# [9] = 60 mg SQ elamipretide with or without the intervention, across all timepoints, all participants, n = 80
structure (smiles),measurement,setting,value
"Cc1cc(O)cc(C)c1C[C@H](NC(=O)[C@H](N)CCCNC(=N)N)C(=O)N[C@@H](CCCCN)C(=O)N[C@@H](Cc1ccccc1)C(N)=O (stereo in doubt) [Elamipretide, H-D-Arg-2′,6′Dmt-Lys-Phe-NH2]",activation of the MRGPRX2 expressing cells (calcium mobilization),[1],dose dependent activation
same,injection site reactions,[2],some being severe at the higher dose levels
same,"Clinically assessed Erythema or redness, (%) of Reported Reactions",[3]; [9],(26.3) %
same,"Clinically assessed Erythema or redness, Number of Reported Reactions",[3]; [9],21
same,"Clinically assessed Induration or swelling, (%) of Reported Reactions",[3]; [9],(20.0) %
same,"Clinically assessed Induration or swelling, Number of Reported Reactions",[3]; [9],16
same,"Clinically assessed Pain or tenderness, (%) of Reported Reactions",[3]; [9],(11.3) %
same,"Clinically assessed Pain or tenderness, Number of Reported Reactions",[3]; [9],9
same,"Clinically assessed Pruritis, (%) of Reported Reactions",[3]; [9],(17.5) %
same,"Clinically assessed Pruritis, Number of Reported Reactions",[3]; [9],14
same,time post-dose after which bruising appeared to form,"[3]; injection site photographs, in those affected",> 12 h
same,time post-dose at which ISRs captured on the photographs were resolving,"[3]; injection site photographs, with the exception of bruising",4 h
same,Fluo-4 fluorescence after elamipretide exposure,[4],not in untransfected cells
same,effect on cells lacking the MRGPRX2 receptor (calcium mobilization),[5],no effect
same,Tmax,[6],30 min
same,injection site reactions,[7],generally not severe
same,pEC50,[8],4.01
same,EC50 relative to the typical elamipretide injection concentration of 40 mg/mL (times lower),[8],~600 times
same,Fluo-4 fluorescence after elamipretide exposure,[8]; HEK293 cells transfected with MRGPRX2,increased
